Inconclusive results and toxic doses are left out.
Test system: BDF1 mice, P388 leukemia ip, median survival T/C
Experiment: NCI In Vivo Anticancer Drug Screen. Data for tumor model P388 Leukemia (intraperitoneal) in B6D2F1 (BDF1) mice
Conditions: endpoint: median survival time, higher = longer survival
Outline: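 Each value expresses how treatment altered survival: treated-mouse outcome over vehicle-mouse outcome, both groups bearing the transplanted tumour.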

[1] = dose: 50.0 mg/kg/injection, schedule: Q01DX009 (ip), vehicle: saline with Tween-80
[2] = dose: 100.0 mg/kg/injection, schedule: Q01DX009 (ip), vehicle: saline with Tween-80
[3] = dose: 25.0 mg/kg/injection, schedule: Q01DX009 (ip), vehicle: saline with Tween-80
[4] = dose: 100.0 mg/kg/injection, schedule: Q01DX009 (ip), vehicle: saline

CC1=CC23C(=O)[C@@H](C=C(COC(=O)c4ccccc4)[C@@H](O)[C@]2(O)[C@H]1OC(=O)c1ccccc1)[C@H]1[C@@H](C[C@H]3C)C1(C)C
T/C (dose: 7.0 micrograms/kg/injection, schedule: Q01DX009 (ip), vehicle: saline with Tween-80): 197 % of control
T/C (dose: 8.0 micrograms/kg/injection, schedule: Q01DX009 (ip), vehicle: saline + alcohol): 110 % of control
T/C (dose: 11.0 micrograms/kg/injection, schedule: Q01DX009 (ip), vehicle: saline with Tween-80): 107 % of control
T/C (dose: 13.0 micrograms/kg/injection, schedule: Q01DX009 (ip), vehicle: saline + alcohol): 108 % of control
T/C (dose: 19.0 micrograms/kg/injection, schedule: Q01DX009 (ip), vehicle: saline with Tween-80): 113 % of control
T/C (dose: 21.0 micrograms/kg/injection, schedule: Q01DX009 (ip), vehicle: saline + alcohol): 110 % of control
T/C (dose: 31.0 micrograms/kg/injection, schedule: Q01DX009 (ip), vehicle: saline with Tween-80): 113 % of control
T/C (dose: 35.0 micrograms/kg/injection, schedule: Q01DX009 (ip), vehicle: saline + alcohol): 110 % of control
T/C (dose: 52.0 micrograms/kg/injection, schedule: Q01DX009 (ip), vehicle: saline with Tween-80): 124 % of control
T/C (dose: 59.0 micrograms/kg/injection, schedule: Q01DX009 (ip), vehicle: saline + alcohol): 107 % of control
T/C (dose: 86.0 micrograms/kg/injection, schedule: Q01DX009 (ip), vehicle: saline with Tween-80): 109 % of control
T/C (dose: 98.0 micrograms/kg/injection, schedule: Q01DX009 (ip), vehicle: saline + alcohol): 100 % of control
T/C (dose: 144.0 micrograms/kg/injection, schedule: Q01DX009 (ip), vehicle: saline with Tween-80): 113 % of control
T/C (dose: 240.0 micrograms/kg/injection, schedule: Q01DX009 (ip), vehicle: saline with Tween-80): 157 % of control

CC(=O)N(O)CCCCCNC(=O)CCC(=O)N(O)CCCCCNC(=O)CCC(=O)N(O)CCCCCN
T/C [1]: 101 % of control
T/C [2]: 102 % of control

CCOC(=O)C(CC)(CCC(C)C)C(=O)OCC
T/C [3]: 95 % of control
T/C [1]: 95 % of control
T/C [2]: 100 % of control

CS(=O)(=O)c1nc(N)nc2nc[nH]c12
T/C (dose: 75.0 mg/kg/injection, schedule: Q04DX003 (ip), vehicle: saline): 104 % of control
T/C [4]: 115 % of control
T/C (dose: 150.0 mg/kg/injection, schedule: Q04DX003 (ip), vehicle: saline): 100 % of control
T/C (dose: 200.0 mg/kg/injection, schedule: Q01DX009 (ip), vehicle: saline): 105 % of control
T/C (dose: 300.0 mg/kg/injection, schedule: Q04DX003 (ip), vehicle: saline): 109 % of control

Cc1ccc(C(c2ccc(C)cc2)C(Cl)(Cl)Cl)cc1
T/C (dose: 100.0 mg/kg/injection, schedule: Q01DX001 (ip), vehicle: saline sonified): 100 % of control
T/C (dose: 200.0 mg/kg/injection, schedule: Q01DX001 (ip), vehicle: saline sonified): 100 % of control
T/C (dose: 400.0 mg/kg/injection, schedule: Q01DX001 (ip), vehicle: saline sonified): 90 % of control

Nc1ccc(S(=O)(=O)N/N=C/c2ccccc2[N+](=O)[O-])cc1
T/C (dose: 6.25 mg/kg/injection, schedule: Q01DX009 (ip), vehicle: saline with Tween-80): 95 % of control
T/C (dose: 12.5 mg/kg/injection, schedule: Q01DX009 (ip), vehicle: saline with Tween-80): 100 % of control
T/C [3]: 101 % of control

C#CC1(OCC2CN(c3ccccc3)C(=O)O2)CCCCC1 (centres undefined)
T/C [2]: 90 % of control
T/C (dose: 100.0 mg/kg/injection, schedule: Q04DX003 (ip), vehicle: saline): 100 % of control
T/C (dose: 200.0 mg/kg/injection, schedule: Q01DX009 (ip), vehicle: saline with Tween-80): 100 % of control
T/C (dose: 200.0 mg/kg/injection, schedule: Q04DX003 (ip), vehicle: saline): 100 % of control
T/C (dose: 400.0 mg/kg/injection, schedule: Q01DX009 (ip), vehicle: saline with Tween-80): 109 % of control
T/C (dose: 400.0 mg/kg/injection, schedule: Q04DX003 (ip), vehicle: saline): 100 % of control

CCCCCCCCCCCCCCCC[N+](C)(C)c1nc(Cl)nc(Cl)n1
T/C (dose: 7.5 mg/kg/injection, schedule: Q01DX009 (ip), vehicle: saline): 110 % of control
T/C (dose: 7.5 mg/kg/injection, schedule: Q04DX003 (ip), vehicle: saline): 109 % of control
T/C (dose: 15.0 mg/kg/injection, schedule: Q01DX009 (ip), vehicle: saline): 105 % of control
T/C (dose: 15.0 mg/kg/injection, schedule: Q04DX003 (ip), vehicle: saline): 113 % of control
T/C (dose: 30.0 mg/kg/injection, schedule: Q01DX009 (ip), vehicle: saline): 105 % of control
T/C (dose: 30.0 mg/kg/injection, schedule: Q04DX003 (ip), vehicle: saline): 109 % of control
T/C (dose: 60.0 mg/kg/injection, schedule: Q04DX003 (ip), vehicle: saline): 118 % of control

O=c1[nH]nnc2ccccc12
T/C (dose: 25.0 mg/kg/injection, schedule: Q01DX009 (ip), vehicle: saline): 95 % of control
T/C (dose: 25.0 mg/kg/injection, schedule: Q04DX003 (ip), vehicle: Klucel (hydroxypropylcellulose) (HPC)): 100 % of control
T/C (dose: 37.5 mg/kg/injection, schedule: Q04DX003 (ip), vehicle: Klucel (hydroxypropylcellulose) (HPC)): 100 % of control
T/C (dose: 50.0 mg/kg/injection, schedule: Q01DX009 (ip), vehicle: saline): 95 % of control
T/C (dose: 50.0 mg/kg/injection, schedule: Q04DX003 (ip), vehicle: Klucel (hydroxypropylcellulose) (HPC)): 104 % of control
T/C (dose: 75.0 mg/kg/injection, schedule: Q04DX003 (ip), vehicle: Klucel (hydroxypropylcellulose) (HPC)): 95 % of control
T/C [4]: 90 % of control
T/C (dose: 100.0 mg/kg/injection, schedule: Q04DX003 (ip), vehicle: Klucel (hydroxypropylcellulose) (HPC)): 100 % of control
T/C (dose: 150.0 mg/kg/injection, schedule: Q01DX009 (ip), vehicle: Klucel (hydroxypropylcellulose) (HPC)): 100 % of control
T/C (dose: 150.0 mg/kg/injection, schedule: Q04DX003 (ip), vehicle: Klucel (hydroxypropylcellulose) (HPC)): 109 % of control

CN1CCN(Cc2nc3cccc4c3c([n+]2[O-])-c2ccccc2-4)CC1
T/C (dose: 40.0 mg/kg/injection, schedule: Q06HX032 (ip), vehicle: saline with Tween-80): 100 % of control
T/C (dose: 50.0 mg/kg/injection, schedule: Q03HX008 (ip), vehicle: saline with Tween-80): 107 % of control
T/C (dose: 50.0 mg/kg/injection, schedule: Q03HX024 (ip), vehicle: saline with Tween-80): 109 % of control
T/C (dose: 80.0 mg/kg/injection, schedule: Q01DX009 (ip), vehicle: saline with Tween-80): 118 % of control
T/C (dose: 80.0 mg/kg/injection, schedule: Q03HX008 (ip), vehicle: saline with Tween-80): 120 % of control
T/C [4]: 158 % of control
T/C (dose: 100.0 mg/kg/injection, schedule: Q01DX009 (oral), vehicle: saline with Tween-80): 107 % of control
T/C (dose: 100.0 mg/kg/injection, schedule: Q01DX Z (ip), vehicle: saline): 159 % of control
T/C (dose: 100.0 mg/kg/injection, schedule: Q03HX008 (oral), vehicle: saline with Tween-80): 105 % of control
T/C (dose: 100.0 mg/kg/injection, schedule: Q03HX024 (ip), vehicle: saline with Tween-80): 162 % of control
T/C (dose: 100.0 mg/kg/injection, schedule: Q08HX009 (oral), vehicle: saline with Tween-80): 100 % of control
T/C (dose: 100.0 mg/kg/injection, schedule: Q08HX027 (oral), vehicle: saline with Tween-80): 120 % of control
T/C (dose: 150.0 mg/kg/injection, schedule: Q01DX009 (ip), vehicle: saline): 150 % of control
T/C (dose: 150.0 mg/kg/injection, schedule: Q01DX009 (oral), vehicle: saline with Tween-80): 112 % of control
T/C (dose: 150.0 mg/kg/injection, schedule: Q04DX003 (oral), vehicle: saline with Tween-80): 99 % of control
T/C (dose: 150.0 mg/kg/injection, schedule: Q08HX009 (oral), vehicle: saline with Tween-80): 112 % of control
T/C (dose: 175.0 mg/kg/injection, schedule: Q08HX027 (oral), vehicle: saline with Tween-80): 161 % of control
T/C (dose: 200.0 mg/kg/injection, schedule: Q01DX009 (oral), vehicle: saline with Tween-80): 110 % of control
T/C (dose: 200.0 mg/kg/injection, schedule: Q03HX024 (oral), vehicle: saline with Tween-80): 152 % of control
T/C (dose: 200.0 mg/kg/injection, schedule: Q04DX003 (oral), vehicle: saline with Tween-80): 110 % of control
T/C (dose: 200.0 mg/kg/injection, schedule: Q08HX009 (oral), vehicle: saline with Tween-80): 103 % of control
T/C (dose: 200.0 mg/kg/injection, schedule: Q08HX027 (oral), vehicle: saline with Tween-80): 90 % of control
T/C (dose: 250.0 mg/kg/injection, schedule: Q01DX009 (oral), vehicle: saline with Tween-80): 117 % of control
T/C (dose: 250.0 mg/kg/injection, schedule: Q04DX003 (oral), vehicle: saline with Tween-80): 100 % of control
T/C (dose: 250.0 mg/kg/injection, schedule: Q08HX009 (oral), vehicle: saline with Tween-80): 116 % of control
T/C (dose: 300.0 mg/kg/injection, schedule: Q04DX003 (oral), vehicle: saline with Tween-80): 105 % of control

Source: PubChem BioAssay AID328 (DTP/NCI, 2004)
